Data set [1] in a line: Polarity of lipids and oils: interfacial tension towards water. Format: physicochemical.
Description: It has already been proposed to adopt interfacial tension towards water as a measure of the polarity index of an oil or of an oil phase. This means that the greater the polarity of the oil phase in question, the lower the interfacial tension between this oil phase and water. According to the invention, the interfacial tension is regarded as being one possible measure of the polarity of a given oil component.
The conditions of data set [2]: cited from earlier work.

We go through five molecules from patent US11497942B2, “Cosmetic or dermatological preparation comprising a combination of a dye and an anti-inflammatory active ingredient” (BEIERSDORF AG, priority 2003, dated 2022).

For Cyclomethicone [DC Fluid 345], the Polarity in data set [1] (mid-polar lipids) and in data set [1] (silicone oils) was 28.5 mN/m throughout.

On to “Cyclopolydimethylsiloxan [Dow Corning Fluid 244]”, for which, in data set [1] (mid-polar lipids), the Polarity is 28.5 mN/m. The same measure, in the same setting: the value for “Phenyltrimethicone [Silicone oil VP 1120]” was 22.7 mN/m. The molecule `CCCCCCCC(=O)OC(=O)OC(=O)CCCCCCC` [Cetiol CC, Dicaprylyl Carbonate] returned a Polarity in data set [1] (nonpolar lipids) of 31.7 mN/m. As for `C=CC(C)(C)c1cc(/C=C/C(=O)c2ccc(O)cc2)c(OC)cc1O` [licochalcone A], in data set [2], the solubility result is on record as “sparingly soluble”.
